This test deals with acetylcholinesterase (AChE, Type VI-S, from electric eel) (Electrophorus electricus, UniProt O42275). As to the kind of experiment: modified Ellman colorimetric AChE inhibition assay. The format is biochemical. On the technique in general: DTNB colorimetry detects thiols as they appear.

Read-outs that look alike come from different tables or passages of the source.

Usually IC50 stands for the concentration that gives 50% inhibition.

Sequence of acetylcholinesterase (AChE, Type VI-S, from electric eel) (O42275 24-633): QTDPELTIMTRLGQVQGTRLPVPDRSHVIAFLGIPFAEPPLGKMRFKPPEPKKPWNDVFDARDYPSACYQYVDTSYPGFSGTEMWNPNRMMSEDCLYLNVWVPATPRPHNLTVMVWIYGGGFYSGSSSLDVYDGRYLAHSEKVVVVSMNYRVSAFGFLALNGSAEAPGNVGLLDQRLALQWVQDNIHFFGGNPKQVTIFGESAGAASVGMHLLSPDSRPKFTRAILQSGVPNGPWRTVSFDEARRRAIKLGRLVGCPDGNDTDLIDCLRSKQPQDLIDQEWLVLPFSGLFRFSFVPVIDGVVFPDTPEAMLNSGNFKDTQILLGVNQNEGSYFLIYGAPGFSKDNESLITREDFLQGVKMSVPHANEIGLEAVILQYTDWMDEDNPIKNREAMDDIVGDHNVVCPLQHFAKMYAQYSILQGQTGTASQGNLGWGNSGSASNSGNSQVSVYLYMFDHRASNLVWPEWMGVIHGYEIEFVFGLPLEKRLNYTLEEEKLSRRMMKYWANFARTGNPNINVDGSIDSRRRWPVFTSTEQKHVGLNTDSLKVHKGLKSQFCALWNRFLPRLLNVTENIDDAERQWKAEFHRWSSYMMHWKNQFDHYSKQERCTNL

As to `C=C1CCC[C@]2(C)C[C@]3(O)OC(=O)C(C)=C3C[C@@H]12` [compound 1, atractylenolide III], for the setting “read-out: IC50 (converted)”, the IC50 was 247 µM.
`C=C1C(OC(C)=O)CCC2(C)CC3(C45CC6(C)CCC(OC(C)=O)C(=C)C6CC4=C(C)C(=O)O5)OC(=O)C(C)=C3CC12` (centres unmarked) [compound 5, biatractylenolide II] had an IC50 of 33.9 µM.

(Values after article PMC8659057, “Chemical Constituents from the Wild Atractylodes macrocephala Koidz and Acetylcholinesterase Inhibitory Activity Evaluation as Well as Molecular Docking Study” (Molecules, 2021).)
